For one experiment, the target named is T1, HBV core protein (Hepatitis B virus genotype D subtype ayw, UniProt P03146).
T1 construct: withdrawal of doxycycline from the cell culture medium which results in expression of core and polymerase HBV proteins; expressed in transfected cells; host or cells: HepG2.117 (human hepatoma-derived, stably transfected with the HBV genome, Tet-off)
As to the kind of experiment: Cellular HBV core high-content imaging assay (cytosolic and nuclear aggregated core / core speckling). In kind it is cell-based. As to conditions: HepG2.117 cells; for dose-dependent cytoplasmic and nuclear core speckling phenotype / Cytosolic aggregated core Median max effect at 25 μM (Range) / Nuclear aggregated core Median max effect at 25 μM (Range) / EC50: 72 h; for dose-dependent cytoplasmic and nuclear core speckling phenotype: 11 concentrations, robustness test; for Cytosolic aggregated core Median max effect at 25 μM (Range) / Nuclear aggregated core Median max effect at 25 μM (Range): normalized to 1 μM GLS-4 high control (100% effect); for EC50: median over inter-/intra-assay plate groups. On the procedure: After trypsinization, HepG2.117 cells were washed once with phosphate buffered saline (PBS). Cells were centrifuged at 1,500 rpm for 5 minutes and divided in two fractions. The fraction that was used for the core-suppressed HepG2.117 cell controls (background control, BC) was resuspended in DMEM supplemented with 2% Tet-system-approved fetal calf serum (FCS; Clontech), 2 mM alanyl-glutamine, lx non-essential amino acids (NEAA; Sigma-Aldrich), and 100 ng/ml doxycycline to suppress core expression. The other fraction was resuspended in DMEM supplemented with 2% Tet-system-approved FCS, 2 mM alanyl-glutamine, and 1×NEAA and used for sample wells, the core-expressing low control wells (LC) and aggregated core-expressing high control wells (HC). 2,000 cells per well were seeded for the assay validation, while 1,500 cells per well were seeded in the cellular screening campaign. Test compound-containing 384-well black poly-D-lysine CellCarrier tissue culture treated plates with an optically clear bottom (Perkin Elmer, Waltham, Mass.) were used. Test compounds were used in dose range in the presence of 1% dimethyl sulfoxide (DMSO). Aggregated core expressing high control wells were treated with 1 μM GLS-4. Compound plates with seeded cells were incubated for 72 h at 37° C. and 5% CO2.
After about 72 hours, cells were fixed with 5% ultra-pure methanol-free formaldehyde (Polysciences, Warrington, Pa.) for 15 minutes and washed three times with PBS. Next, cells were permeabilized for 30 minutes using 0.5% Triton-X-100 (Sigma-Aldrich) dissolved in PBS and washed again three times with PBS. Cells were incubated for 1 hour with PBS containing 5% bovine serum albumin to block Fc receptors. Core protein was detected with primary monoclonal mouse core antibody at a concentration of 666 ng/ml or polyclonal rabbit core antibody at a concentration of 65 μg/ml in PBS containing 5% bovine serum albumin (Sigma-Aldrich). After overnight incubation at 4° C., cells were washed three times with PBS and primary antibody was detected with 2 μg/ml Alexa Fluor-488 goat anti-mouse or goat anti-rabbit secondary antibody. Nuclei and cytoplasm were co-stained using 2 μg/ml Hoechst 33258 (nuclei) and 500 ng/ml HCS CellMask™ Deep Red (entire cells) solution. After 1 hour of incubation at room temperature, cells were washed three times with PBS.
The Opera Phenix™ high-content screening system (Perkin Elmer) was used for automated imaging. A 405-nm laser with 100% power was used with an exposure time of 200 ms to excite Hoechst 33258 (emitting its fluorescent light at 461-nm); emission light was captured using a 435/480 nm emission filter. Simultaneously, HCS CellMask™ Deep Red signal (emitting its fluorescent light at 655-nm) was excited by a 635-nm laser with a 25 ms exposure time and a laser power reduced to 25%; red emitted light was captured using an emission filter of 650/760 nm. Alexa Fluor 488 fluorophores were excited using a 488-nm laser with 100% power and an exposure of 200 ms, whereby the emission filter 500/550 nm was chosen. This detection was performed independently from Hoechst and HCS CellMask™ Deep Red as the fluorescence spectrum of Hoechst overlaps with that of Alexa Fluor-488. A 20× water immersion objective with a numerical aperture of 1.0 was used for imaging of four fields per well.
Images were analyzed with a custom Acapella (Perkin Elmer) script. Nuclei identification was based on the Hoechst 33258 channel, cytoplasm segmentation was based on the HCS CellMask™ Deep Red channel and core protein intensity and texture features were calculated using the Alexa Fluor 488 channel. The cell count feature was used as a measure for cytotoxicity. […] The texture feature “SERSpot” at scale 1.0 was calculated in the nuclear and cytoplasm region of each cell to quantify aggregated core and averaged across all cells on the well-level.

In experiment [1] the target is T2, intracellular capsids (HBV core protein) (Hepatitis B virus genotype D subtype ayw, UniProt P03146).
T2 construct: withdrawal of doxycycline from the cell culture medium which results in expression of core and polymerase HBV proteins; expressed in transfected cells; host or cells: HepG2.117 (human hepatoma-derived, stably transfected with the HBV genome, Tet-off)
T2 sequence (P03146 whole entry): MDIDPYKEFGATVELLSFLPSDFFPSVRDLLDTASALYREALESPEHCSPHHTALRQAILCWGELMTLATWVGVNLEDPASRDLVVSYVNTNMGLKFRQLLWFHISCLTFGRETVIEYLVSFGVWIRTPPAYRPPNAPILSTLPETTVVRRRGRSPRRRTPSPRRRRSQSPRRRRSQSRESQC
As to the kind of experiment: Capsid depletion assay: native polyacrylamide gel electrophoresis with immunoblotting for detection of capsids. The note with it: HepG2.117 cells treated for 3 days, native PAGE/western blot. In kind it is cell-based. How it is done:
HepG2.117 cells cultured in 2% serum containing assay medium as described above were plated in a 12-well plate at a cell density of 500,000 cells/well and incubated at 37° C. and 5% CO2. After overnight incubation, cells were treated with test compound or DMSO for 72 hours at 37° C. and 5% CO2. Afterwards, cells were washed once with PBS and lysed with 300 μl 10 mM Tris-HCl (pH 7.6), 100 mM NaCl, 1 mM ethylenediaminetetraacetic acid (EDTA), and 0.1% NP-40 supplemented with 1× Halt™ Protease Inhibitor Cocktail (Thermo Fisher Scientific, Waltham, Mass.). After lysis of the cells at 37° C. for 10 minutes, cell debris was discarded by centrifugation at 5,000×g for 10 minutes. Supernatant was collected and protein concentration was determined using the DC (detergent compatible) protein assay (Bio-Rad, Hercules, Calif.). Of protein/sample, 2.2 μg was loaded on a NativePAGE™ Novex® 3-12% Bis-Tris Gel (Invitrogen, Waltham, Mass.) with electrophoresis performed at room temperature using NativePAGE™ Running Buffer and NativePAGE™ Cathode Additive. Proteins were transferred using the Novex® iBlot® Transfer Stack, PVDF, regular size kit followed by a standard immunoblotting procedure using primary polyclonal rabbit core antibody at a concentration of 16.25 μg/ml with overnight incubation. […]

Each structure is given as a SMILES string. Where two headings read alike, the source gives them in different places.

T1 sequence (P03146 whole entry): as above

By EC50 is commonly meant the midpoint of the concentration-response curve. With `COC(=O)C1=C(CN2CCOCC2)NC(c2ccccn2)=NC1c1ccc(F)cc1Cl` (stereo not shown) [Compound 5], on HBV core protein, the “dose-dependent cytoplasmic and nuclear core speckling phenotype” value is “dose-dependent cytoplasmic and nuclear core speckling phenotype was observed”; the “Cytosolic aggregated core Median max effect at 25 μM (Range)” value amounted to 72.1; the “Nuclear aggregated core Median max effect at 25 μM (Range)” value came to 86.2. Also, the EC50 at HBV core protein (read-out: Cytosolic aggregated core Median EC50 (μM) (Range)) was 0.078 µM. For the same compound, the EC50 on HBV core protein (read-out: Nuclear aggregated core Median EC50 (μM) (Range)) was determined as 0.085 µM.
Regarding `COC(=O)C1=C(C)NC(c2ncc(F)cc2F)=N[C@H]1c1ccc(F)cc1Cl` [Compound 14], on HBV core protein, the “dose-dependent cytoplasmic and nuclear core speckling phenotype” value was “dose-dependent cytoplasmic and nuclear core speckling phenotype was observed”; the “Cytosolic aggregated core Median max effect at 25 μM (Range)” value came to 68.1; the “Nuclear aggregated core Median max effect at 25 μM (Range)” value is on record as 139.2. Also, the “phenotypic core immunostaining pattern” value at HBV core protein (core expressing (-DOX), FIG. 2A/2B) was “aggregated dot-like pattern of core proteins”. Also, the “depletion of intracellular capsids” value in experiment [1] is reported as “dose-dependent depletion of intracellular capsids”.

The values are drawn from US20230228736A1, “IN VITRO HBV CORE PROTEIN ASSAY” (Janssen Sciences Ireland Unlimited Company, priority 2020, published 2023).
